Data set [1] has as its system transfected cell lines and tumorous cell lines. Put plainly: Short-term cytotoxicity check (Presto Blue cell viability assay). The format is cell-based. Conditions: concentrations tested (100 µmol/L), data not shown.
A further data set deals with T1, P-gp (Homo sapiens, UniProt P08183).
T1 construct: expressed in transfected cells; host or cells: MDCKII
Put plainly: Transwell assay, MDCKII cells stably expressing P-gp. The format is cell-based. Conditions: 100 µmol/L doxorubicin; MDCKII-P-gp on Transwell. On the procedure:
In brief, MDCKII cells stably expressing P-gp or BCRP were seeded on 0.4 µm Transwell® membrane inserts (200.000 cells/insert; Ø6.5 mm, growth area 0.33 cm2) and allowed to differentiate for five days. The integrity of the monolayer was confirmed by monitoring the trans-epithelial electrical resistance (TEER) using the EVOMX system (WPI, Sarasota, FL, USA). […] Every 30 min, the incubation buffer was removed from the receiver compartment and replaced by a freshly preheated buffer for a total time of 2.5 h.

The target of data set [2] is T2, OCT2 (Homo sapiens, UniProt O15244).
T2 sequence (O15244 1-555): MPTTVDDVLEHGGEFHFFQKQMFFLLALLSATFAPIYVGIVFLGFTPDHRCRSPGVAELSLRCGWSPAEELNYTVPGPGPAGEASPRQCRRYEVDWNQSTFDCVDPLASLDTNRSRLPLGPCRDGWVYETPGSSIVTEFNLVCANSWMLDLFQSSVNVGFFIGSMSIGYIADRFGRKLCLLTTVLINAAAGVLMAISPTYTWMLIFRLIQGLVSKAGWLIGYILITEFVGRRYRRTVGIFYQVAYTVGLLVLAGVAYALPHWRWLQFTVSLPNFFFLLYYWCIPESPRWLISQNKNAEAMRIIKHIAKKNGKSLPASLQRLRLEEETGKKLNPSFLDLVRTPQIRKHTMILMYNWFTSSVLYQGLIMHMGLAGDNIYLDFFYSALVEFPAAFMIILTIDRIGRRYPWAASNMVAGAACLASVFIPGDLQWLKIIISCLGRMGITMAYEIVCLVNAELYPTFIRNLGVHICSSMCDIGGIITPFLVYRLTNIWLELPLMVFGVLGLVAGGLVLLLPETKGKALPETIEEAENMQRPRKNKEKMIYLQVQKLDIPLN
The settings on record: MDCKII-OCT2.
Procedure: (§1) Cellular uptake studies: For all transport studies, cells were seeded in 24-well plates and incubated in a full growth medium at an initial density of 200,000 cells/well for 3 days. Before starting each transport experiment, cells were washed with a pre-warmed (37 °C) incubation buffer [64]. […] Protein concentration of whole cell lysate was determined to quantify cell density after each experiment using the BCA assay according to the manufacturer’s instructions (Pierce, Rockford, IL, USA).
(§2) Statistical evaluation: All experiments were performed at least three times unless otherwise noted. The OATP1A2*1–*3 and OCT1-3 net uptake was obtained by subtracting the uptake into wild-type cells from that of the transporter-transfected cells. Km and Vmax were assessed using Prism 5.01 (GraphPad Software, San Diego, CA, USA). The differences in the doxorubcin uptake in OATP1A2*1–*3 and in OCT1-3 transfected cells were adjusted to the membranous transporter protein levels in the whole cell lysate. Km and Vmax are presented as arithmetic means ± standard deviation.

The conditions of data set [3]: cumulative dose 450–600 mg/m^2; cited from earlier work.
A further data set concerns OCT1-3 and OATP1A2. Nature of the data set: in vitro. Conditions: human, OATP1A2*1 and OCT1-3 transfected cells.
For another data set, the target named is T3, OATP1A2*1 (Homo sapiens, UniProt P46721).
T3 sequence (P46721 1-670): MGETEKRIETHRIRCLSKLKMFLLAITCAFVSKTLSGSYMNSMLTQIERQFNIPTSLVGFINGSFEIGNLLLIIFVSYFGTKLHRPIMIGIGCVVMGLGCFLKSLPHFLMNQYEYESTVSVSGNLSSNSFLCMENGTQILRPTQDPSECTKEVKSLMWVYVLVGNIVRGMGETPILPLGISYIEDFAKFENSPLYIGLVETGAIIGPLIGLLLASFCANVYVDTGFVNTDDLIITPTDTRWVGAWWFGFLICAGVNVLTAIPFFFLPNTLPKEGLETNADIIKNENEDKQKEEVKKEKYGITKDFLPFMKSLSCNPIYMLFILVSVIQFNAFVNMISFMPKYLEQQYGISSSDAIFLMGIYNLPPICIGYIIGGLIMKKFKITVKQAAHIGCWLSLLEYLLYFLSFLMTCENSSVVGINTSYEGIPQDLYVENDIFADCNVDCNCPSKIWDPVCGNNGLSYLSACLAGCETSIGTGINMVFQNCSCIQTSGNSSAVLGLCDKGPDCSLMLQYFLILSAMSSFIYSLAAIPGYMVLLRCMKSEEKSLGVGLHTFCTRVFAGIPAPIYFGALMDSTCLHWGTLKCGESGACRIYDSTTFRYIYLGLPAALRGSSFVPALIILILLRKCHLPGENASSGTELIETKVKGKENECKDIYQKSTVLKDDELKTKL
Put plainly: in vitro.

The target of data set [4] is T2, OCT2. Nature of the data set: in vitro. Conditions: mdck.
Procedure: as §1, §2
The next data set concerns the target T4, OCT3 (Homo sapiens, UniProt O75751).
T4 sequence (O75751 1-556): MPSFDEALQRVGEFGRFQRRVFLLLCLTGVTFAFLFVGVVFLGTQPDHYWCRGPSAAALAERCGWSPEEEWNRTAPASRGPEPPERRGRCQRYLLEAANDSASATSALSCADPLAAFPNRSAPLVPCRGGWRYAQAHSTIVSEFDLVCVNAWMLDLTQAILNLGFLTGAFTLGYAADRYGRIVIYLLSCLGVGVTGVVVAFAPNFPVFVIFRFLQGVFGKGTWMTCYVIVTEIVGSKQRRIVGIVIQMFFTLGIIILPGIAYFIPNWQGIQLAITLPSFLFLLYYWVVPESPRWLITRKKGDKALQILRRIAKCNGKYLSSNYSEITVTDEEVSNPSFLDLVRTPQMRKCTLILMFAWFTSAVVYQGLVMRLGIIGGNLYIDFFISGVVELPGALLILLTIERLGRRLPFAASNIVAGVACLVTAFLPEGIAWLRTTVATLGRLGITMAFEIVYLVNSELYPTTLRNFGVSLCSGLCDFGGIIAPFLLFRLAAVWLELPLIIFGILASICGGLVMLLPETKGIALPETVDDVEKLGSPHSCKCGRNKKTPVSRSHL
Nature of the data set: Doxorubicin uptake into MDCKII cells stably expressing OCT3.

T1 sequence (P08183 whole entry): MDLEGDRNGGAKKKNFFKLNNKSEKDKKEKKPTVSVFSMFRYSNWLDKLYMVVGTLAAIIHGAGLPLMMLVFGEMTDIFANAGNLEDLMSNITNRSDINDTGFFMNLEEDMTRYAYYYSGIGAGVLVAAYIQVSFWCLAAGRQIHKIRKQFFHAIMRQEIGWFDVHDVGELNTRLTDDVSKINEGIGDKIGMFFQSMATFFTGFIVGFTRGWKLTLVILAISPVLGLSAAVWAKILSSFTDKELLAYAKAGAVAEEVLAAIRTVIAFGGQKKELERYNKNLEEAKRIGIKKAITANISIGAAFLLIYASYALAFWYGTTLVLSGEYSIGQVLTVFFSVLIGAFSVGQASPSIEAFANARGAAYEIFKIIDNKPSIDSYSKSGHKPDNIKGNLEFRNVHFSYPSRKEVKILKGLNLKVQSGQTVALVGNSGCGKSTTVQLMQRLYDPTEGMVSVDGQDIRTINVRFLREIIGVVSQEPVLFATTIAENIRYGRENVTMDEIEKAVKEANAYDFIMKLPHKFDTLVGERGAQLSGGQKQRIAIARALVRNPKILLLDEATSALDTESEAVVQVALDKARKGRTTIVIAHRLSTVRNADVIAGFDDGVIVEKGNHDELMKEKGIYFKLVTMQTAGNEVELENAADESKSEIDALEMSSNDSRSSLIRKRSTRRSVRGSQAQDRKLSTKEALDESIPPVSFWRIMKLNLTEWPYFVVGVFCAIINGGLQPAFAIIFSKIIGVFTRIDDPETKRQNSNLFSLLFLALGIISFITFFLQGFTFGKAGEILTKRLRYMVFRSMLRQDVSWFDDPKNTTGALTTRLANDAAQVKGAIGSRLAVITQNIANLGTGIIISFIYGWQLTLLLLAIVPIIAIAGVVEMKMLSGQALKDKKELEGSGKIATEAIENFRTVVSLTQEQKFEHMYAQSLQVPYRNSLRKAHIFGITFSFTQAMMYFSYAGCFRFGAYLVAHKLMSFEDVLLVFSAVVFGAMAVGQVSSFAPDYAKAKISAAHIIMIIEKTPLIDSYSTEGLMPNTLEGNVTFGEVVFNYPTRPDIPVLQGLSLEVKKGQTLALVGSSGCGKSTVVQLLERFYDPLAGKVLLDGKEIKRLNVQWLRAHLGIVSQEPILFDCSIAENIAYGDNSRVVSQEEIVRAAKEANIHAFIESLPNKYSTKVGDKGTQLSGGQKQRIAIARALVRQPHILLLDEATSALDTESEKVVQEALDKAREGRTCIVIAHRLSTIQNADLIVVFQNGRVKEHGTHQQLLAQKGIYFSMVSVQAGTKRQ
Procedure for OATP1A2*1: as §1
(§3) Protein abundance of OATP1A2*1–*3 and OCT1–3 were measured by mass spectrometry-based targeted proteomics using a validated LC-MS/MS method as recently described [65].
200 μL of each cell lysate sample was mixed with 25 μL internal standard (5 µg/mL daunorubicin), 25 μL citric acid (1%), and 400 μL ice-cold acetonitrile for protein precipitation. […] The clear supernatant was transferred to HPLC vials. The measurement and quantitative evaluation were carried out using the LC-MS/MS system QTRAP 4000® (AB SCIEX, Darmstadt, Germany) and the Software Analyst® 1.4 (Applied Biosystems, Darmstadt, Germany).
Statistical evaluation: All experiments were performed at least three times unless otherwise noted. The OATP1A2*1–*3 and OCT1-3 net uptake was obtained by subtracting the uptake into wild-type cells from that of the transporter-transfected cells. […]
Procedure for OCT1-3 and OATP1A2: as §1, §3
Statistical evaluation: All experiments were performed at least three times unless otherwise noted. The OATP1A2*1–*3 and OCT1-3 net uptake was obtained by subtracting the uptake into wild-type cells from that of the transporter-transfected cells. Km and Vmax were assessed using Prism 5.01 (GraphPad Software, San Diego, CA, USA). […] Km and Vmax are presented as arithmetic means ± standard deviation.
Procedure for OCT3: as §1, §2

As for `COc1cccc2c1C(=O)c1c(O)c3c(c(O)c1C2=O)C[C@@](O)(C(=O)CO)C[C@@H]3O[C@H]1C[C@H](N)[C@H](O)[C@H](C)O1` [doxorubicin, Doxorubicin], in data set [1], the “cytotoxic effects within one hour” value is given as “no cytotoxic effects”. Besides, the “vectorial transport of doxorubicin by P-gp” value at P-gp is recorded as “vectorial transport from the basolateral to the apical compartment”. Moreover, the Vmax on OCT2 [2] (doxorubicin 0–100 µmol/L, 3 min, mean ± SD) came to 37.8 ± 11.1 pmol/mg/min; at OCT3 (MDCKII-OCT3, doxorubicin 0–100 µmol/L, 3 min, mean ± SD), 12.9 ± 3.60 pmol/mg/min. Besides, the “saturation of concentration-dependent OCT2-mediated uptake” value on OCT2 [2] (incubation time 3 min, up to 100 µmol/L) is “not saturated”. For the same compound, the “risk of congestive heart failure” value in data set [3] is on record as 3–18%. Also, the Km in the data set on OCT1-3 and OATP1A2 was in the range of 5 to 13 µM. In addition, the Km at 5 min at OATP1A2*1 (HEK293 cells stably expressing OATP1A2*1) is 7.49 ± 3.41 µM. For the same compound, the microsomal CLint at 5 min on OATP1A2*1 (other cell line) is 4.71 ± 1.53 µL/min/mg. Further, the microsomal CLint at 3 min on OCT2 [4] is 0.5 ± 0.26 µL/min/mg; on OCT3 (human, mdck), 0.99 ± 0.33 µL/min/mg.

Source of the values: PMC8745601 (International Journal of Molecular Sciences, 2021).
